Test results: US20010034328A1, “Treatment of male chronic pelvic pain syndrome” (priority 2000, published 2001)

How the values were obtained:
[1] = tested on: male subjects exhibiting signs and symptoms of Category III prostatitis; settings: 200 mg bid, cited from earlier work
[2] = cited from earlier work
[3] = tested on: terminally ill cancer patients; settings: approximately 900-2100 mg/day for up to 8 months; twenty-one patients; cited from earlier work
[4] = tested on: male subjects having a clinical diagnosis of chronic pelvic pain syndrome; test: treatment of male subjects with chronic pelvic pain syndrome with 600-900 mg per day; format: in vivo, human; settings: 600, 700, 800 or 900 mg per day orally, up to sixteen weeks or more
Procedure: Utilizing capsules prepared as above and 100 mg capsules available from ALZA Corporation as appropriate to meet the daily dosing requirements, male subjects having a clinical diagnosis of chronic pelvic pain syndrome are treated with 600, 700, 800 or 900 mg per day of pentosan polysulfate sodium for up to sixteen weeks, generally 1-2 weeks, 2-4 weeks, 4-8 weeks, 8-16 weeks or up to 32 weeks or more. The daily doses may be administered in multiple doses, generally three times per day with each dose containing equal amounts of pentosan polysulfate. As examples, the daily 600 mg dose may be administered as two 300 mg capsules of pentosan polysulfate as described herein in the morning and evening, or as three 200 mg doses (two 100 mg capsules) in the morning, at mid-day and in the evening. Typically, administration is in the non-fed mode with subjects receiving the doses either at least one hour before a meal or at least two hours after a meal. Daily 900 mg doses may be administered as three 300 mg capsules in the morning, at mid-day and in the evening. As with the 600 mg daily dose, administration typically is in the non-fed mode with subjects receiving the doses either at least one hour before a meal or at least two hours after a meal. […]

For pentosan polysulfate, the median measurement score ([1]; after 3 months of treatment, compared with placebo) is listed as “lowered to a greater extent than the placebo group”, the “difference between the treatment group and the placebo group” value ([1]; after 3 months of treatment) is listed as “no evident difference” and the symptoms of myalgia/arthralgia ([1]; treatment group) is listed as “some improvement”. The oral bioavailability [2] was “approximately 3%”, the “patients who experienced some degree of bleeding from the rectum or digestive tract” value [3] was “Twenty” and the “relief of intensity and frequency of symptoms (pain, frequency and urgency of urination, nocturia, ejaculatory pain, impotence)” value [4] was “can experience relief”.
